Reference: patent publication US7071231B2, “Naphthalene ureas as glucose uptake enhancers” (Telik, Inc., priority 1999, dated 2006)
Where two headings read alike, the source gives them in different places.

Tested on: 3T3 L1 fibroblasts
Assay: Glucose transport activity assay (14C-2-deoxy-D-glucose uptake)
Assay type: cell-based
Experimental: Glucose Transport Activity Assay.
Stimulation of the insulin receptor leads to the transport of glucose from the blood into cells, thus modulating blood glucose levels. 3T3 L1 fibroblasts (ATCC) were grown in Dulbecco's modified Eagle's medium (DMEM) with 10% fetal bovine serum (FBS). The cells were plated at a density of 3×10^4 cells/well in 24-well plates. Two days after confluence was reached, the cells were treated for 3 days with 0.5 mM isobutylmethylxanthine (IBMX), 1 μM dexamethasone, and 1.7 μM insulin. The cells were then transferred to DMEM with 10% FBS and supplemented with 1.7μM insulin for 2 more days. The cells were maintained in DMEM with 10% FBS for an additional 4 days. Finally the cells were serum-starved overnight in 0.1% bovine serum albumin (BSA) in DMEM.
The following day, the medium was replaced with 150 mM NaCl, 1.7 mM KCl, 0.9 mM CaCl2, K2HPO4 (pH 7.4) to which were added either the experimental compounds or their vehicle (DMSO). Insulin or its vehicle (0.01% BSA) was diluted in the assay buffer (containing test compound or vehicle, respectively) to final concentration of […]. After incubation for 30 min at 37° C., 5 μCi/ml ^14C-2-deoxy-D-glucose was added, and the incubation was continued for additional 30 min at 37° C. The cells were then washed 3 times with ice-cold PBS/20 mM glucose and lysed in 250 μl of lysis buffer (50 mM HEPES pH 7.6, 1% Triton X-100) for 30 min at room temperature. Radioactivity in the lysate was quantified by scintillation counting.
Once ^14C-2-deoxy-D-glucose is transported into the cell, it is not released. Glucose transport is, therefore, proportional to the amount of radioactivity in the lysate. The concentration of compound necessary to produce an increase in glucose transport to greater than 150% of the vehicle control (generally representing the sum of the standard deviation of the vehicle control plus the largest standard deviation of a test sample) was recorded as the EC (effective concentration). Shown in FIG. 3 is glucose uptake by cells at various concentrations when treated with Compound 13 and Compound 15.

[1] = EC (effective concentration) for increase in glucose transport, 14C-2-deoxy-D-glucose, 3T3 L1 cells, read-out: Concentration (μM) to reach >150% activity of vehicle control
[2] = Mus musculus, EC (effective concentration) for increase in glucose transport, 14C-2-deoxy-D-glucose, 3T3 L1 cells, read-out: Concentration (μM) to reach >150% activity of vehicle control

Compound | EC (150% of vehicle control) [2] | other results
5-({[7-({[(7-{[(3-carboxy-4-chlorophenyl)amino]sulfonyl}(2-naphthyl))amino]iminomethyl}amino)(2-naphthyl)]sulfonyl}amino)-2-chlorobenzoic acid [Compound 160] |  | EC (150% of vehicle control) [1]: 3.2 µM
5-[({7-[3-(7-{[(3-carboxy-4-hydroxyphenyl)amino]sulfonyl}(2-naphthyl))-2-oxoimidazolidinyl](2-naphthyl)}sulfonyl)amino]-2-hydroxybenzoic acid [Compound 122] |  | EC (150% of vehicle control) [1]: 32 µM
O=C(Nc1ccc2ccc(S(=O)(=O)O)cc2c1)Nc1ccc2ccc(S(=O)(=O)Nc3ccc(S(=O)(=O)O)cc3)cc2c1 [Compound 20, 7-{[(7-{[(4-sulfophenyl)amino]sulfonyl}-2-naphthyl)amino]carbonylamino}naphthalene-2-sulfonic acid] | 3.2 µM | 
O=C(Nc1ccc2ccc(S(=O)(=O)Nc3ccc(S(=O)(=O)O)cc3)cc2c1)Nc1ccc2ccc(S(=O)(=O)Nc3ccc(S(=O)(=O)O)cc3)cc2c1 [Compound 22, 4{[(7-{[N-(7-{[(4-sulfophenyl)amino]sulfonyl}-2-naphthyl)carbamoyl]amino}-2-naphthyl)sulfonyl]amino}benzenesulfonic acid] | 3.2 µM | 
O=C(Nc1ccc2ccc(S(=O)(=O)Nc3ccc(C(=O)O)cc3)cc2c1)Nc1ccc2ccc(S(=O)(=O)Nc3ccc(C(=O)O)cc3)cc2c1 [Compound 25, 4-{[(7-{[N-(7-{[(4-carboxyphenyl)amino]sulfonyl}-2-naphthyl)carbamoyl]amino}-2-naphthyl)sulfonyl]amino}benzoic acid] | 3.2 µM | 
O=C(Nc1ccc2ccc(S(=O)(=O)O)cc2c1)Nc1ccc2ccc(S(=O)(=O)Nc3cccc(C(=O)O)c3O)cc2c1 [Compound 30, 2-hydroxy-3-{[(7-{[N-(7-sulfo(2-naphthyl))carbamoyl]amino}(2-naphthyl))sulfonyl]amino}benzoic acid] | 3.2 µM | 
O=C(Nc1ccc2ccc(S(=O)(=O)Nc3cccc(C(=O)O)c3O)cc2c1)Nc1ccc2ccc(S(=O)(=O)Nc3cccc(C(=O)O)c3O)cc2c1 [Compound 31, 3-{[(7-{[N-(7-{[(3-carboxy-2-hydroxyphenyl)amino]sulfonyl}(2-naphthyl))carbamoyl]amino}(2-naphthyl))sulfonyl]amino}-2-hydroxybenzoic acid] | 3.2 µM | 
O=C(Nc1ccc2ccc(S(=O)(=O)O)cc2c1)Nc1ccc2ccc(S(=O)(=O)Nc3ccc(O)c(C(=O)O)c3)cc2c1 [Compound 32, 2-hydroxy-5-{[(7-{[N-(7-sulfo(2-naphthyl))carbamoyl]amino}(2-naphthyl))sulfonyl]amino}benzoic acid] | 32 µM | 
O=C(Nc1ccc2ccc(S(=O)(=O)Nc3ccc(O)c(C(=O)O)c3)cc2c1)Nc1ccc2ccc(S(=O)(=O)Nc3ccc(O)c(C(=O)O)c3)cc2c1 [Compound 33, 5-{[(7-{[N-(7-{[(3-carboxy-4-hydroxyphenyl)amino]sulfonyl}(2-naphthyl))carbamoyl]amino}(2-naphthyl))sulfonyl]amino}-2-hydroxybenzoic acid] | 3.2 µM | 
O=C(Nc1ccc2ccc(S(=O)(=O)O)cc2c1)Nc1ccc2ccc(S(=O)(=O)Nc3ccc(C(=O)O)c(O)c3)cc2c1 [Compound 34, 2-hydroxy-4-{[(7-{[N-(7-sulfo(2-naphthyl))carbamoyl]amino}(2-naphthyl))sulfonyl]amino}benzoic acid] | > 32 µM | 
O=C(Nc1ccc2ccc(S(=O)(=O)Nc3ccc(C(=O)O)c(O)c3)cc2c1)Nc1ccc2ccc(S(=O)(=O)Nc3ccc(C(=O)O)c(O)c3)cc2c1 [Compound 35, 4-{[(7-{[N-(7-{[(4-carboxy-3-hydroxyphenyl)amino]sulfonyl}(2-naphthyl))carbamoyl]amino}(2-naphthyl))sulfonyl]amino}-2-hydroxybenzoic acid] | 32 µM | 
O=C(Nc1ccc2ccc(S(=O)(=O)O)cc2c1)Nc1ccc2ccc(S(=O)(=O)Nc3ccc([N+](=O)[O-])c(C(=O)O)c3)cc2c1 [Compound 37, 2-nitro-5-{[(7-{[N-(7-sulfo(2-naphthyl))carbamoyl]amino}(2-naphthyl))sulfonyl]amino}benzoic acid] | 3.2 µM | 
O=C(Nc1ccc2ccc(S(=O)(=O)Nc3ccc([N+](=O)[O-])c(C(=O)O)c3)cc2c1)Nc1ccc2ccc(S(=O)(=O)Nc3ccc([N+](=O)[O-])c(C(=O)O)c3)cc2c1 [Compound 38, 5-{[(7-{[N-(7-{[(3-carboxy-4-nitrophenyl)amino]sulfonyl}(2-naphthyl))carbamoyl]amino}(2-naphthyl))sulfonyl)amino}-2-nitrobenzoic acid] |  | EC (150% of vehicle control) (Mus musculus, 3T3-L1, read-out: Concentration (μM) to reach >150% activity of vehicle control): 3.2 µM
O=C(Nc1ccc2c(O)cc(S(=O)(=O)Nc3ccc(O)c(C(=O)O)c3)cc2c1)Nc1ccc2c(O)cc(S(=O)(=O)Nc3ccc(O)c(C(=O)O)c3)cc2c1 [Compound 43, 5-{[(7-{[N-(7-{[(3-carboxy-4-hydroxyphenyl)amino]sulfonyl}-5-hydroxy(2-naphthyl))carbamoyl]amino}-4-hydroxy(2-naphthyl))sulfonyl]amino}-2-hydroxybenzoic acid] | 10 µM | 
O=C(Nc1ccc2ccc(S(=O)(=O)Nc3ccccc3C(=O)O)cc2c1)Nc1ccc2ccc(S(=O)(=O)Nc3ccccc3C(=O)O)cc2c1 [Compound 45, 2-{[(7-{[N-(7-{[(2-carboxyphenyl)amino]sulfonyl}-2-naphthyl)carbamoyl]amino}-2-naphthyl)sulfonyl]amino}benzoic acid] | 3.2 µM | 
O=C(Nc1ccc2c(O)cc(S(=O)(=O)Nc3ccccc3C(=O)O)cc2c1)Nc1ccc2c(O)cc(S(=O)(=O)Nc3ccccc3C(=O)O)cc2c1 [Compound 47, 2-{[(7-{[N-(7-{[(2-carboxyphenyl)amino]sulfonyl}-5-hydroxy(2-naphthyl))carbamoyl]amino}-4-hydroxy-2-naphthyl)sulfonyl]amino}benzoic acid] | 3.2 µM | 
O=C(Nc1ccc2c(O)cc(S(=O)(=O)Nc3ccc(Cl)c(C(=O)O)c3)cc2c1)Nc1ccc2c(O)cc(S(=O)(=O)Nc3ccc(Cl)c(C(=O)O)c3)cc2c1 [Compound 49, 5-{[(7-{[N-(7-{[(3-carboxy-4-chlorophenyl)amino]sulfonyl}-5-hydroxy(2-naphthyl))carbamoyl]amino}-4-hydroxy(2-naphthyl))sulfonyl]amino}-2-chlorobenzoic acid] | 3.2 µM | 
COC(=O)c1cc(NS(=O)(=O)c2cc(O)c3ccc(NC(=O)Nc4ccc5c(O)cc(S(=O)(=O)Nc6cc(C(=O)OC)cc(C(=O)OC)c6)cc5c4)cc3c2)cc(C(=O)OC)c1 [Compound 50, methyl 3-({[7-({[7-({[3,5-bis(methoxycarbonyl)phenyl]amino}sulfonyl)-5-hydroxy(2-naphthyl)]amino}carbonylamino)-4-hydroxy(2-naphthyl)]sulfonyl}amino)-5-(methoxycarbonyl)benzoate] | 3.2 µM | 
O=C(Nc1ccc2c(O)cc(S(=O)(=O)Nc3cc(C(=O)O)cc(C(=O)O)c3)cc2c1)Nc1ccc2c(O)cc(S(=O)(=O)Nc3cc(C(=O)O)cc(C(=O)O)c3)cc2c1 [Compound 51, 5-{[(7-{[N-(7-{[(3,5-dicarboxyphenyl)amino]sulfonyl}-5-hydroxy(2-naphthyl))carbamoyl]amino}-4-hydroxy-2-naphthyl)sulfonyl]amino}benzene-1,3-dicarboxylic acid] | > 32 µM | 
O=C(O)Cc1cccc(NS(=O)(=O)c2cc(O)c3ccc(NC(=O)Nc4ccc5c(O)cc(S(=O)(=O)Nc6cccc(CC(=O)O)c6)cc5c4)cc3c2)c1 [Compound 52, 2-[3-({[7-({[7-({[3-(carboxymethyl)phenyl]amino}sulfonyl)-5-hydroxy(2-naphthyl)]amino}carbonylamino)-4-hydroxy-2-naphthyl]sulfonyl}amino)phenyl]acetic acid] | 3.2 µM | 
O=C(Nc1ccc2ccc(S(=O)(=O)Nc3ccc(Br)c(C(=O)O)c3)cc2c1)Nc1ccc2ccc(S(=O)(=O)Nc3ccc(Br)c(C(=O)O)c3)cc2c1 [Compound 56, 2-bromo-5-{[(7-{[N-(7-{[(4-bromo-3-carboxyphenyl)amino]sulfonyl}(2-naphthyl))carbamoyl]amino}(2-naphthyl))sulfonyl]amino}benzoic acid] | 3.2 µM | 
Cc1ccc(NS(=O)(=O)c2ccc3ccc(NC(=O)Nc4ccc5ccc(S(=O)(=O)Nc6ccc(C)c(C(=O)O)c6)cc5c4)cc3c2)cc1C(=O)O [Compound 57, 5-{[(7-{[N-(7-{[(3-carboxy-4-methylphenyl)amino]sulfonyl}(2-naphthyl))carbamoyl]amino}(2-naphthyl))sulfonyl]amino}-2-methylbenzoic acid] | 3.2 µM | 
